From US20130345073A1, “USE OF ALPHA-2-MACROGLOBULIN FOR DETERMINING OSTEONECROSIS DISEASE STATUS AND FOR SCREENING THERAPEUTIC AGENTS FOR PREVENTING OR TREATING OSTEONECROSIS” (priority 2012, published 2013)
Where two headings read alike, the source gives them in different places.

Columns and labels:
[1] = test system: A2M gene expression in human umbilical vein endothelial cells (HUVEC); experiment: A2M gene expression in treated HUVEC cells (qPCR); assay type: cell-based; details: for effect on A2M overexpression induced by dexamethasone: combined with dexamethasone, PD98059 20 μM, withaferin 1 μM (FIG. 4D)
Text: HUVECs were purchased from Lonza (Walkersville, Md., USA) and cultured in endothelial basal medium (EBM-2media (Lonza) supplemented with microvascular additives (excluding hydrocortisone): human endothelial growth factor, 5% fetal bovine serum (FBS), vascular endothelial growth factor, human fibroblast growth factor type B, R3 insulin-like growth factor 1, ascorbic acid, heparin and the appropriate antibiotics gentamicin and amphotericin B (as per the supplier's protocol). HUVECs cells were cultured to near confluence (80%), trypsinized and seeded on 6 wells plates (10^5 cells/well). After 24 h incubation, cells were treated with dexamethasone (0.25 to 1 mM, Sigma-Aldrich, St-Louis, Mo., USA) for different time periods (between 4h to 48h). For experiments relating to the signaling pathways, different inhibitors were used: PD98059 (20 μM, Sigma) a MAPK inhibitor; withaferin (1 μM, Tocris, Bristol, UK), an NFkB PI3K inhibitor, and thrombin (1.5 U/ml; Calbiochem, San Diego, Calif., USA) an NFkB agonist. After incubation cells were harvested and RNA extracted using Trisol® (Invitrogen, Burlington, ON, Canada). RNA were then reverse transcribed using high capacity RNA to cDNA kit (Applied biosystems, Carlsbad, Calif., USA). A2M expression levels were then determined by qPCR using Taqman probes and master mix (Applied Biosystems)
First, a dose response curve of HUVEC cells treated 48h using different concentration of Dex (dexamethasone) (0.1 mM to 1 mM) was generated. […] Then, a time response curve (4h to 24h) of HUVEC cells treated with 1 mM dexamethasone was generated. […] The effect of dexamethasone, PD and whitaferin on A2M expression of HUVEC cells was also determined.

Fisher and WK rats = experiment: Micro-computerized tomography scanning of femoral head cross-sections; assay type: in vivo, rat
Experimental: At the conclusion of the 180 day experimental period, all prednisone and placebo animals were euthanized via brief isoflurane exposure followed by cardiac puncture. Immediately following euthanasia, both femurs in each animal were dissected, with care taken to preserve the integrity of the femoral cartilage during hip disarticulation. The femurs were then osteotomized at the mid-diaphysis and the proximal portion was immersed initially in 4% paraformaldehyde for 24 hours, washed with sterile phosphate buffered saline (PBS) for the following 48 hours, and then preserved in PBS at −5° Celsius.
Micro computed-tomography (μCT) scanning was performed on each harvested femur using a Skyscan1172 instrument equipped with a 1.3 Mp camera (Skyscan, Kontich, Belgium). […] 2-dimensional serial cross sections were assembled into 3D reconstructions and analyzed using Skyscan™ software (CTAn version 2.0.0.1) supplied with the instrument. […]
In the present example, an analysis of the epiphyseal trabecular bone adjacent to the subchondral plate was performed. […] This shape permitted the largest area of epiphyseal bone to be measured without artefact from the adjacent rodent growth plate or cortical cap. […]
Four widely utilized morphometric indices measuring bone volume and bone connectivity were measured from the binarized 3-dimensional volume of interest. […] Total bone porosity (TBP) was also measured. […]

[2] = test system: Fisher and Wistar Kyoto (WK) rats; experiment: Alpha-2-Macroglobulin (A2M) level in the blood by rat A2M ELISA; assay type: in vivo
Text: Slow-release prednisone pellets (Innovative Research of America, Sarasota Florida, USA) were implanted subcutaneously into 12 Wistar Kyoto rats (all males) and 12 Fisher rats (all males) at the age of 8-12 weeks. Each pellet was implanted underneath the skin on the lateral side of the neck by surgically making an incision and developing a pocket about 2 cm beyond the incision site. The pellet was placed in the pocket and the incision was sutured. Based on the manufacturer's instructions the pellet releases a constant dose of the drug subcutaneously. To maintain a constant dosage during the 6 month period of the experiment, second and third pellet implantations were performed using the same procedure at 2 and 3 months respectively. The average dose release from the pellet was equivalent to 1.5 mg/kg/day for the period of 6 months. The dose of corticosteroids and the duration of treatment were chosen based on clinical experience. For the control group, 6 age-matched Wistar Kyoto (all males) and 6 age-matched Fisher (all males) rats received placebo pellets (Innovative Research of America) introduced through the same surgical technique. All rats were weighed upon their entry into the animal facility and were then weighed on a weekly basis until the end of the experimental period. Serum glucose measurements were performed at 2 week intervals via saphenous venipuncture using a portable glucometer (ContourTM glucometer, Bayer). Furthermore, 1 ml of whole blood was collected from each animal once a month via sublingual venipuncture under general anesthesia following a previously described technique. Following venipuncture, the blood was transferred to standard EDTA tubes, centrifuged for 8 minutes at 3600 rpm and the serum was separated and initially stored at -20° Celsius. Monthly serum […] concentrations were determined using a Rat Alpha 2-Marcoglobulin Enzyme Linked Immunoassay (ELISA) (Kamiya Biomedical Company, Seattle, USA) according to the manufacturer's instructions. This measurement was performed by an author blinded to treatment allocation. Fisher and Wistar Kyoto (WK) rats received steroid/placebo treatment for 5 and 6 months, respectively and blood was collected monthly. The Alpha-2-Macroglobulin […]) level in the blood was detected using rat […] ELISA kit (Immunology Consultants Laboratory, USA). Rats were divided into groups based on the treatment as well as the results from histopathology and TUNEL evaluation. AVN(+) was judged to be either TUNEL (+) or (++), or AVN(-) by histopathology study on at least one hip. […] However, as shown on FIG. 3C, the […] level in the blood of steroid-treated Fisher rats (only those considered AVN(+)) increased at 2 months after steroid treatment, and they were consider AVN(+). […]

[3] = test system: Fisher and Wistar Kyoto (WK) rats; details: male, rat, in vivo, 5 months
Wistar Kyoto rats = details: male, rat, in vivo, 6 months
Experimental: (§1) Experimental animals and their maintenance. Forty Wistar Kyoto (WKY) rats (ages 4 weeks old) were purchased from Charles River Laboratories (Pointe-Claire, QC, Canada). The rats were tagged and housed in plastic cages (2 to 4 animals per cage) under standard laboratory conditions with a 12-hour dark/12-hour light cycle, a constant temperature of 20° C., and humidity of 48%. Food and water were provided ad libitum with a standard rodent diet. The weight of the rats were followed before and after the implant of a prednisone pellet for the first 3 consecutive weeks and then every month until the end of the experiment. All experiments were conducted under an animal protocol approved by the McGill Animal Care Department.
Slow-release prednisone pellets (Innovative Research of America, Sarasota Florida, USA) were implanted subcutaneously into 24 Wistar Kyoto rats (12 males and 12 females rats) at the age of 5 weeks. […]
The rats were sacrificed with an overdose of ketamine/xylazine at the age of 30 weeks. […] Tissue samples were sectioned parasagitally with a rotary microtome at 4 to 5 microns thickness, stained with hematoxylin and eosin and evaluated by light microscopy.
The tissue samples were analyzed in a blinded fashion by two experienced bone pathologists. […]

[4] = test system: Fisher and Wistar Kyoto (WK) rats; details: rat, in vivo
Experimental: as §1, with “Eighteen Wistar” for “Experimental animals and their maintenance. Forty Wistar”, “(ages 12-16 weeks old) and eighteen Fisher (ages 12-16” for “(ages 4”
Slow-release prednisone pellets (Innovative Research of America, Sarasota Florida, USA) were implanted subcutaneously into 12 Wistar Kyoto rats (all males) and 12 Fisher rats (all males) at the age of 8-12 weeks. Each pellet was implanted underneath the skin on the lateral side of the neck by surgically making an incision and developing a pocket about 2 cm beyond the incision site. The pellet was placed in the pocket and the incision was sutured. Based on the manufacturer's instructions the pellet releases a constant dose of the drug subcutaneously. To maintain a constant dosage during the 6 month period of the experiment, second and third pellet implantations were performed using the same procedure at 2 and 3 months respectively. The average dose release from the pellet was equivalent to 1.5 mg/kg/day for the period of 6 months. The dose of corticosteroids and the duration of treatment were chosen based on clinical experience. For the control group, 6 age-matched Wistar Kyoto (all males) and 6 age-matched Fisher (all males) rats received placebo pellets (Innovative Research of America) introduced through the same surgical technique.
The rats were sacrificed with an overdose of ketamine/xylazine at the age of 32-36 weeks. Tissue samples were obtained from the proximal femur containing the femoral head. Some samples were put in RNALater™ (QIAGEN Inc., Mississauga, ON, Canada) for RNA extraction and some samples were fixed for histological examination. Bone samples were fixed in 10% neutral buffered formalin, then decalcified in 4% ethylenediamine tetraacetic acid (pH 7.2) (Sigma-Aldrich, St. Louis, Mo., USA). The specimens were processed routinely and embedded in paraffin. Tissue samples were sectioned parasagitally with a rotary microtome at 4 to 5 microns thickness, stained with hematoxylin and eosin and evaluated by light microscopy.
The tissue samples were analyzed in a blinded fashion by two experienced bone pathologists. […] While the development of ON proceeds through various clinically identifiable stages, it was preferable for this study to detect early as well as the late stages of the condition. With this objective in mind, the criteria of Arlet [Arlet, 1993] was adopted namely degeneration, necrosis, and disappearance of marrow cells as well as the nuclear disappearance and hypochromasia of trabecular osteocytes as early signs of ON [Arlet, 1993]. Early signs of ON was also considered when apoptosis occurred in the osteocytes and osteoblasts. Positivity for apoptosis was defined by the authors as more than three osteocytes and/or osteoblasts recognized in a high magnification field based on previous studies [Weinstein et al, 2000; Shibahara et al., 2000].
Terminal dexoynucleotidyl transferase (TdT) mediated deoxyuridine triphosphate biotin nick end labeling (TUNEL) was used to detect fragmented DNA known to be associated with apoptotic cell death. TUNEL assay on paraffin-embedded tissue sections was performed with the DeadEnd™ Colorimetric TUNEL System (Promega, Madison, Wis., USA) as recommended by the manufacturer. […]

**Q.** `COc1cccc(-c2cc(=O)c3ccccc3o2)c1N` [PD, PD98059] was tested. Which “effect on A2M overexpression induced by dexamethasone” value ([1]; HUVEC) did it give?
**A.** repression of A2M gene expression

**Q.** Which results are given for `C[C@]12C=CC(=O)C=C1CC[C@@H]1[C@@H]2C(=O)C[C@@]2(C)[C@H]1CC[C@]2(O)C(=O)CO` [Prednisone, prednisone]?
**A.** micro-CT findings of femoral head (Fisher and WK rats; Fisher rats following steroid administration (FIG. 5A)): no articular erosion; rats with subchondral porosity, small and erratic trabeculae and isotropic trabecular arrangement (Fisher and WK rats; steroid-treated WK rats (FIG. 5B)): 9 out of 12; A2M level in the blood ([2]; Fisher rats, 5 months after the beginning of the steroid treatment (FIG. 3E)): declined; A2M level in the blood ([2]; steroid-treated Fisher rats AVN(+), at 2 months after steroid treatment (FIG. 3C)): increased; time of peak A2M level in the blood after the beginning of the treatment ([2]; steroid-treated WK rats, all AVN(+) (FIG. 3D)): 3 month; A2M level in the blood ([2]; steroid-treated WK rats, at least 6 months after the beginning of the treatment (FIG. 3E)): remained higher than placebo-treated group; Total TUNEL(++) hips [3]: 7; Total TUNEL(−) hips [3]: 2; number of hips AVN(+) TUNEL(−) [3]: 1; incidence of the disease (ON) (Wistar Kyoto rats): up to 75%; Total TUNEL(++) hips ([4]; male, Wistar Kyoto, 6 months): 9; Total TUNEL(−) hips ([4]; male, Wistar Kyoto, 6 months): 1; number of hips AVN(+) TUNEL(−) ([4]; male, Wistar Kyoto, 6 months): 1; number of hips AVN(−) TUNEL(+) ([4]; male, Wistar Kyoto, 6 months): 1; number of hips AVN(−) TUNEL(++) ([4]; male, Wistar Kyoto, 6 months): 2; apoptosis (TUNEL positive cells) in bilateral femora [4]: more profound

**Q.** Which results are given for `C[C@@H]1C[C@H]2[C@@H]3CCC4=CC(=O)C=C[C@]4(C)[C@@]3(F)[C@@H](O)C[C@]2(C)[C@@]1(O)C(=O)CO` [dexamethasone]?
**A.** concentration of maximum effect on A2M expression ([1]; HUVEC treated 48h, dose response 0.1 mM to 1 mM (FIG. 4A)): 0.5 mM; time of maximum effect on A2M expression ([1]; HUVEC, 1 mM dexamethasone, time response 4h to 24h (FIG. 4B)): 24 h

**Q.** Which “effect on A2M overexpression induced by dexamethasone” value ([1]; HUVEC) does the source give for `CC1=C(CO)C(=O)O[C@@H]([C@@H](C)[C@H]2CC[C@H]3[C@@H]4C[C@H]5O[C@]56[C@@H](O)C=CC(=O)[C@]6(C)[C@H]4CC[C@]23C)C1` [whitaferin, withaferin] here?
**A.** repression of A2M gene expression
